Consider seven molecules from patent US12398132B2, “Derivatives of 4-(imidazo[1,2-a]pyridin-3-yl)-n-(pyridinyl)pyrimidin-2-amine as therapeutic agents” (AUCENTRA THERAPEUTICS PTY LTD, priority 2019, dated 2025).

A word on the GI50: it is the concentration at which growth is held to half of that of the control.

Where a chain is given by its changes, count along the chain named. Where two headings read alike, the source gives them in different places.

For assay [1], the target named is T1, CDK7HMAT1 (Homo sapiens, UniProt P50613). The assay is described as follows: biochemical.
T1 sequence (P50613 whole entry): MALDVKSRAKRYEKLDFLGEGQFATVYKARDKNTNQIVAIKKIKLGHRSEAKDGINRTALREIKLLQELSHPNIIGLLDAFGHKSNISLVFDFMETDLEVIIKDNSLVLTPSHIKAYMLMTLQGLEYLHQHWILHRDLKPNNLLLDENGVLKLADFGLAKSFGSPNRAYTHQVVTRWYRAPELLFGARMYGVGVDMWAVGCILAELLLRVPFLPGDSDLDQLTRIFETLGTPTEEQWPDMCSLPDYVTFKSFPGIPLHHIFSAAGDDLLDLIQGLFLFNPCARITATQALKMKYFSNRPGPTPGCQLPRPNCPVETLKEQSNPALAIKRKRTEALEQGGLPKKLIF
T1 sequence (P51946 whole entry partner): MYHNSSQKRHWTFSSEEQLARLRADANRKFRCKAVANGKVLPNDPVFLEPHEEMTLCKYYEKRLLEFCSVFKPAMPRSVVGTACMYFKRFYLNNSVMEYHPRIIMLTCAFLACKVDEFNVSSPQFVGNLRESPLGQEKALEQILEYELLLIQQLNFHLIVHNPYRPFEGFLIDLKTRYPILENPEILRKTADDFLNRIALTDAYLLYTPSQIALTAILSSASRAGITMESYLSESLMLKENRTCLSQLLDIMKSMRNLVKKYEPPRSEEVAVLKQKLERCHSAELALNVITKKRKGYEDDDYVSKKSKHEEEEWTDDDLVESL
T1 sequence (P51948 whole entry partner): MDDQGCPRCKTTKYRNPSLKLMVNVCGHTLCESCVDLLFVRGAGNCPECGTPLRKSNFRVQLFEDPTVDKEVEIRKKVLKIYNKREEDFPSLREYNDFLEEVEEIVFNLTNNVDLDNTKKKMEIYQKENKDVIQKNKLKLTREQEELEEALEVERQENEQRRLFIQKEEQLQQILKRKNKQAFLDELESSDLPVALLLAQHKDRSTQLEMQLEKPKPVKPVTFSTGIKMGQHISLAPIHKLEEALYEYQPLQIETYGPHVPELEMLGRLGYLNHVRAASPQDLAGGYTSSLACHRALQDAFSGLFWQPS
For another assay, the target named is CDK9/CyclinT1 (Homo sapiens, UniProt P50750). The assay is described as follows: ADP Glo kinase assay, CDK9/CyclinT1. The conditions noted are these: CDK9T1; apparent Ki calculated from Km (ATP) and IC50; read-out: CDK inhibition Ki. The format is biochemical.
Sequence of CDK9/CyclinT1 (P50750 whole entry, species assumed): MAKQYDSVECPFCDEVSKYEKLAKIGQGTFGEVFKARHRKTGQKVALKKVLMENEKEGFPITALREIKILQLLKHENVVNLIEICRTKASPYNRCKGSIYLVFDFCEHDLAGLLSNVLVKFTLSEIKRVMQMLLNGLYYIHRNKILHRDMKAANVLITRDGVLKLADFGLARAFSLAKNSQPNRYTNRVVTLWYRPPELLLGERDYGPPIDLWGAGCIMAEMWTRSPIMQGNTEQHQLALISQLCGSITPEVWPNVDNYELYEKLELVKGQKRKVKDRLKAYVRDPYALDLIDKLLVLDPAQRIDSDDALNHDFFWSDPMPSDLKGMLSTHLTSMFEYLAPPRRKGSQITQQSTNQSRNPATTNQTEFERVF
Sequence of CDK9/CyclinT1 (O60563 whole entry partner, species assumed): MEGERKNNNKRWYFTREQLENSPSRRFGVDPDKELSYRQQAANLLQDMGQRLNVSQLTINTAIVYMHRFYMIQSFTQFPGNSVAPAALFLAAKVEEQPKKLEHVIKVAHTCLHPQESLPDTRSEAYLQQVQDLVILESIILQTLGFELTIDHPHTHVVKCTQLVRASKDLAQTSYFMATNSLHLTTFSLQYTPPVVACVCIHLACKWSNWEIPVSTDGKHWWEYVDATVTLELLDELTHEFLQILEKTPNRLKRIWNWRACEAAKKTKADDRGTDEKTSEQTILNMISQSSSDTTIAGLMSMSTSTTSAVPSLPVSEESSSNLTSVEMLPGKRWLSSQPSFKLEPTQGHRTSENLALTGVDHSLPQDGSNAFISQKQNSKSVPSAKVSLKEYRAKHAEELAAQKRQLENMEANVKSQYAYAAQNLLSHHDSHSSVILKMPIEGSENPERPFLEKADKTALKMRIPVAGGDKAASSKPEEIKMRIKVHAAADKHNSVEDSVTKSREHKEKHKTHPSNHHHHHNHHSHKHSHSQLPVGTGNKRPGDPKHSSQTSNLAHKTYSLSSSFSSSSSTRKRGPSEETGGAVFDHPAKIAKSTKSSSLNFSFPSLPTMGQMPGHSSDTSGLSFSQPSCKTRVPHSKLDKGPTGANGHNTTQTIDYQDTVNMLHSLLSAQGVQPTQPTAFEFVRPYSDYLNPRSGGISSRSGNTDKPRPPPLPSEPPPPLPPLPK
Another assay deals with U937. The assay is described as follows: Proliferation assay (resazurin/MTT), U937. The format is cell-based. The note with it: Homo sapiens, U-937, read-out: 72 h Growth inhibition GI50, U937 cells. Background: Alamar Blue is a resazurin reagent that responds to reducing activity.
Another assay relates to MV-4-11. Nature of the assay: Proliferation assay (resazurin/MTT), MV-4-11. The conditions noted are these: Homo sapiens, MV4-11, read-out: 72 h Growth inhibition GI50, MV-4-11 cells. The format is cell-based.
For assay [2], the target named is T2, CDK2E1 (Homo sapiens, UniProt P24941). The note with it: 1 µM.
Assay [3] concerns the target T3, CDK1B (Homo sapiens, UniProt P06493). The assay is described as follows: biochemical.
The target in the next assay is CDK4/D1 (Homo sapiens, UniProt P11802). The assay is described as follows: ADP Glo kinase assay, CDK4/D1. Format: biochemical. The note with it: CDK4D1; for Ki: apparent Ki calculated from Km (ATP) and IC50, read-out: CDK inhibition Ki.
Sequence of CDK4/D1 (P11802 whole entry, species assumed): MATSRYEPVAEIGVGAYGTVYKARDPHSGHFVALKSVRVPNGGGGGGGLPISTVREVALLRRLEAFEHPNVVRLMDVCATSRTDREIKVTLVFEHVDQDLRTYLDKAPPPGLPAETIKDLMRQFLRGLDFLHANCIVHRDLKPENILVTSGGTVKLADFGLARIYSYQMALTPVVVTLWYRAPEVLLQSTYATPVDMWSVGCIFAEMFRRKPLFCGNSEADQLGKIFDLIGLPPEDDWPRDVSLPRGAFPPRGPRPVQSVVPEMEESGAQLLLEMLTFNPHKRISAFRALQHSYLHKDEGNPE
Sequence of CDK4/D1 (P24385 whole entry partner, species assumed): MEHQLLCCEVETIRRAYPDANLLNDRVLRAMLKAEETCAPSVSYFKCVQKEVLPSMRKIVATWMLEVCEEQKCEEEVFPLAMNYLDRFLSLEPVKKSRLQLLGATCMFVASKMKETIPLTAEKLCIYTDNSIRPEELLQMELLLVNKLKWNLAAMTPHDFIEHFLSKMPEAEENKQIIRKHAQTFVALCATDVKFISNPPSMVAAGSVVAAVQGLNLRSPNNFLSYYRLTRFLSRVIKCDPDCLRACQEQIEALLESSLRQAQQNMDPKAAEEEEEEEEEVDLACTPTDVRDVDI
A further assay has as its target CDK6/D3 (Homo sapiens, UniProt Q00534). The assay is described as follows: ADP Glo kinase assay, CDK6/D3. Format: biochemical. The conditions noted are these: CDK6D3; for Ki: apparent Ki calculated from Km (ATP) and IC50, read-out: CDK inhibition Ki; for remaining activity at 10 µM: compound at 10 μM, read-out: residual enzymatic activity (%) at 10 μM.
The next assay has as its target T4, FLT3(WT) (Homo sapiens, UniProt P36888).
T4 sequence (P36888 27-993): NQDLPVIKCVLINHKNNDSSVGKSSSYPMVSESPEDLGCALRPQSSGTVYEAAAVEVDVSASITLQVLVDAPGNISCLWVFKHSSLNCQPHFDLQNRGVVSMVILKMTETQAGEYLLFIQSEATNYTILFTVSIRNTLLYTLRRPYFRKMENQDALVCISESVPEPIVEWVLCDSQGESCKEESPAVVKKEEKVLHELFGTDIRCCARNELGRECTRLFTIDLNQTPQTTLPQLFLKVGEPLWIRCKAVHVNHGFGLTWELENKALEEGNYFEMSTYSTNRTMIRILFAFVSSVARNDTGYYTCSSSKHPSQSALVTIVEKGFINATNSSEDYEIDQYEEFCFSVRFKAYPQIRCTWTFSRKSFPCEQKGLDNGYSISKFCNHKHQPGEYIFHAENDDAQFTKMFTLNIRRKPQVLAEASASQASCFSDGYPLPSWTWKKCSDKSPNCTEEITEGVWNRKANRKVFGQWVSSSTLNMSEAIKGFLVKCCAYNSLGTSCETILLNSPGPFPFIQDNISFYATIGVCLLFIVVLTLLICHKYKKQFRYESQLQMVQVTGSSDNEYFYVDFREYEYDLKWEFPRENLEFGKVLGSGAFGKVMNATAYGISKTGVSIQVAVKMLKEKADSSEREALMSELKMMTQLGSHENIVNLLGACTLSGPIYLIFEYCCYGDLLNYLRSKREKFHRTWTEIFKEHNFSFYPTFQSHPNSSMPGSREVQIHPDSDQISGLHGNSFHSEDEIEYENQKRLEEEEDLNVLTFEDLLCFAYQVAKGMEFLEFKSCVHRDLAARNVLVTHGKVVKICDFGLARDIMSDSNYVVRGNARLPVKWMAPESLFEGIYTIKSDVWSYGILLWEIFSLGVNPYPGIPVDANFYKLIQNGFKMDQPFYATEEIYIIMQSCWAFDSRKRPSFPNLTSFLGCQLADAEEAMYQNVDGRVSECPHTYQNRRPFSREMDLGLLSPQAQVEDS
Nature of the assay: ADP Glo kinase assay, FLT3(WT). The note with it: compound at 1 μM, read-out: residual enzymatic activity (%) at 1 μM. Format: biochemical. (ADP-Glo first removes unused ATP, then detects ADP through luciferase.)

For the next assay, the target named is T5, FLT3(D835Y) (Homo sapiens, UniProt P36888, D835Y).
T5 sequence (P36888 27-993 D835Y): T4 sequence (P36888 27-993) with D809Y
The assay is described as follows: ADP Glo kinase assay, FLT3(D835Y). The format is biochemical. The conditions noted are these: apparent Ki calculated from Km (ATP) and IC50, read-out: FLT3 inhibition Ki.

The next assay deals with T6, FLT3(ITD) (Homo sapiens, UniProt P36888).
T6 sequence (P36888 1-993): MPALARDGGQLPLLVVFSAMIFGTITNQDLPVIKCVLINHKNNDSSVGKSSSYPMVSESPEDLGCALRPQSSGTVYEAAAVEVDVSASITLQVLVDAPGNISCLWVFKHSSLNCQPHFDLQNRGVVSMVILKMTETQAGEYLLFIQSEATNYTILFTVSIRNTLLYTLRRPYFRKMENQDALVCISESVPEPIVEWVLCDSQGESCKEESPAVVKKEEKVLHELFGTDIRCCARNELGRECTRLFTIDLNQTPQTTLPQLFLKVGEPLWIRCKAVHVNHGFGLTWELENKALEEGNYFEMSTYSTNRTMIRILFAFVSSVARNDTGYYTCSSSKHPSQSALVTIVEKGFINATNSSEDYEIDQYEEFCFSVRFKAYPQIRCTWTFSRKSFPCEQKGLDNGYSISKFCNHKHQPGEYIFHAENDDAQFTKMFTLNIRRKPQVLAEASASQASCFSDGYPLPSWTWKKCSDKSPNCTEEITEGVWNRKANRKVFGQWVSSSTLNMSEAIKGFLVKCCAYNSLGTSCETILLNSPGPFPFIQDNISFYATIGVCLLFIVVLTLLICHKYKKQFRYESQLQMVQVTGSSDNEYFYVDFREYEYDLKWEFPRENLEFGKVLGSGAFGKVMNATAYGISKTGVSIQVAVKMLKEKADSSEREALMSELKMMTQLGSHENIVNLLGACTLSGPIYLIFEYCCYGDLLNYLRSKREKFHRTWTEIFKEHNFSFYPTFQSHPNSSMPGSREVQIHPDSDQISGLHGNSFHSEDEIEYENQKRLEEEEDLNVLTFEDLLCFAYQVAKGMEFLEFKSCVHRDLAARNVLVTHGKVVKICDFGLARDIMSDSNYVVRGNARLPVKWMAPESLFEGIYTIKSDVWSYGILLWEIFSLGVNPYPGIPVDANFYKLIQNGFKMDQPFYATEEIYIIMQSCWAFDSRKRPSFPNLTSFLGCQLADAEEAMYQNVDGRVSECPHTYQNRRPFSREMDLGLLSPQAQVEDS
The assay is described as follows: ADP Glo kinase assay, FLT3(ITD). The format is biochemical. The conditions noted are these: apparent Ki calculated from Km (ATP) and IC50, read-out: FLT3 inhibition Ki.

For assay [4], the target named is T1, CDK7HMAT1. The note with it: 10 µM.
Assay [5] addresses T3, CDK1B.
Assay [6] concerns the target T2, CDK2E1. The assay is described as follows: biochemical.
[7] abbreviates: compound at 1 μM (values marked *), read-out: residual enzymatic activity (%) at 1 μM*.

Sequence of CDK6/D3 (Q00534 whole entry, species assumed): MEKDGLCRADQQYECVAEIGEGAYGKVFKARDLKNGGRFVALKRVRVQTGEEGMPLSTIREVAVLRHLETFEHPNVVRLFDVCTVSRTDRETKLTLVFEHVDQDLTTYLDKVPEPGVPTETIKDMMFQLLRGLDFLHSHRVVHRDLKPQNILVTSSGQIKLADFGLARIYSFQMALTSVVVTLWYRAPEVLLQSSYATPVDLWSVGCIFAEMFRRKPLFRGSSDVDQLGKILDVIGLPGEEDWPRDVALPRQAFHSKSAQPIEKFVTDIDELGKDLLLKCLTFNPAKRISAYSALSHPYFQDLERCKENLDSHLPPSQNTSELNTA
Sequence of CDK6/D3 (P30281 whole entry partner, species assumed): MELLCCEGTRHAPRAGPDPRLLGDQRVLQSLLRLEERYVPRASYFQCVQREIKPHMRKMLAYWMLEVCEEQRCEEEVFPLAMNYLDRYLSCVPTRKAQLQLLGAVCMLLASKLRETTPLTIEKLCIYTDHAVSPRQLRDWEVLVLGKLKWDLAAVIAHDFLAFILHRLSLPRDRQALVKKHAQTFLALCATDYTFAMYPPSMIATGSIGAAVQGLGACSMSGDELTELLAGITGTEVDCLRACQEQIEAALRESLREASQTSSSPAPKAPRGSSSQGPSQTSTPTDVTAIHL
T3 sequence (P06493 whole entry): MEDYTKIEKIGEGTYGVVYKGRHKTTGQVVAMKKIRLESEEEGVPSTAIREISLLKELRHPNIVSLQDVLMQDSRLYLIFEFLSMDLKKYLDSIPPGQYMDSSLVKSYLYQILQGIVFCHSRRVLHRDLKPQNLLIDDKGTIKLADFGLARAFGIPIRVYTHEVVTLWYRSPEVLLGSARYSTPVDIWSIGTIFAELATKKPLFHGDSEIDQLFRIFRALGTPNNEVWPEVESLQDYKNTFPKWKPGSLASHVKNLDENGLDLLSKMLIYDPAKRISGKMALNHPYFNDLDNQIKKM
T3 sequence (P14635 whole entry partner): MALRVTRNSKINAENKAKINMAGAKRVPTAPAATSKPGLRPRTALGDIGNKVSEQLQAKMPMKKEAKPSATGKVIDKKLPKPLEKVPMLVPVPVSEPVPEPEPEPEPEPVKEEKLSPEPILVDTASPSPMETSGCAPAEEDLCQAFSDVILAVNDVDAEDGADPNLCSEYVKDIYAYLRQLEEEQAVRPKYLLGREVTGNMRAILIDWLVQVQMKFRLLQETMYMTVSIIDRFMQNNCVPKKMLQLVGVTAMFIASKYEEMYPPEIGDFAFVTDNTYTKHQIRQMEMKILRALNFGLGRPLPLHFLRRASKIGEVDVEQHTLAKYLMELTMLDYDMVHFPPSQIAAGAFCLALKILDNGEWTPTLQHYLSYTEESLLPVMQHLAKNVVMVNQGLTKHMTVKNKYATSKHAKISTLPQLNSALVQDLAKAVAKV
Method for CDK6/D3: (§1) Inhibition of FLT3(WT), FLT3(ITD) and FLT3(D835Y) and CDKs were determined using ADP Glo Kinase assays (Promega Corporation, Madison, WI, USA). […] Similarly, kinase reaction for CDK4/D1 and CDK6/D3 was performed with reaction buffer (40 nM Tris base pH 7.5, 20 mM MgCl2, 0.4 mM DTT), 0.1 mg/ml BSA and RB-CTF substrate (retinoblastoma protein1 C-terminal fraction). For CDK9/CyclinT1, the kinase reaction was performed with the standard assay buffer and Kinase Dilution Buffer and RBER-IRStide substrate. Half-maximal inhibition (IC50) values were calculated using a 4-parameter logistic non-linear regression model with Graphpad prism (Version 6.0). Apparent inhibition constants (Ki) values were calculated from Km (ATP) and IC50 values for the respective kinases.
Method for CDK9/CyclinT1: as §1
Method for FLT3(D835Y): (§2) Inhibition of FLT3(WT), FLT3(ITD) and FLT3(D835Y) and CDKs were determined using ADP Glo Kinase assays (Promega Corporation, Madison, WI, USA). […] The kinase reactions are run for an optimised time period (FLT3-WT: 120 min, FLT3-ITD: 80 min, FLT3-D835Y: 100 min) at room temperature and then the reaction was stopped by adding 5 μL of ADP Glo reagent. […] Positive and negative controls were performed in 0.5% DMSO in the presence and absence of each FLT3 kinase, respectively. […] Half-maximal inhibition (IC50) values were calculated using a 4-parameter logistic non-linear regression model with Graphpad prism (Version 6.0). Apparent inhibition constants (Ki) values were calculated from Km (ATP) and IC50 values for the respective kinases.
Method for FLT3(ITD): as §2

On to `c1ccn2c(-c3ccnc(Nc4ccc(N5CCNCC5)cn4)n3)cnc2c1` [Cmpd 1, 4-(Imidazo[1,2-a]pyridin-3-yl)-N-(5-(piperazin-1-yl)pyridin-2-yl)pyrimidin-2-amine], for which the Ki at CDK7HMAT1 [1] was 1190 nM; on CDK9/CyclinT1 it was 37 nM; on CDK1B [3], 1340 nM; at CDK4/D1, 116 nM; at CDK6/D3 it was 900 nM. The GI50 in the assay with U937 was 497 nM; in the assay on MV-4-11 it was 9 nM. Further, the activity on CDK2E1 [2] is 69%.

On to `CN1CCN(c2ccc(Nc3nccc(-c4cnc5ccccn45)n3)nc2)CC1` [Cmpd 2, 4-(Imidazo[1,2-a]pyridin-3-yl)-N-(5-(4-methylpiperazin-1-yl)pyridin-2-yl)pyrimidin-2-amine], for which the remaining activity at 1 µM at FLT3(WT) came to 33%. Also, the Ki on CDK7HMAT1 [1] is 1700 nM; at CDK9/CyclinT1 it was 85 nM; on FLT3(D835Y), 49 nM; on CDK1B [3] it was 1990 nM; on CDK4/D1 it was 155 nM; at FLT3(ITD), 235 nM. The Ki at CDK6/D3 was 1050 nM. The GI50 in the assay on U937 was determined as 504 nM; with MV-4-11, 35 nM.

In the case of `CC(=O)N1CCN(c2ccc(Nc3nccc(-c4cnc5ccc(C)cn45)n3)nc2)CC1` [Cmpd 13, 1-(4-(6-((4-(6-Methylimidazo[1,2-a]pyridin-3-yl)pyrimidin-2-yl)amino)pyridin-3-yl)piperazin-1-yl)ethan-1-one], the Ki was 163 nM at CDK9/CyclinT1, 2450 nM on CDK1B [3], 419 nM on CDK4/D1 and 2400 nM at CDK6/D3. Besides, the figures for the GI50 in the assay on U937 and in the assay on MV-4-11 were 1470 nM and 6 nM, respectively. Moreover, the activity worked out at 77% at CDK7HMAT1 [4] and 52% at CDK2E1 [2].

As to `CC(=O)N1CCN(c2ccc(Nc3nccc(-c4cnc5ccc(-c6cccs6)cn45)n3)nc2)CC1` [Cmpd 17, 1-(4-(6-((4-(6-(Thiophen-2-yl)imidazo[1,2-a]pyridin-3-yl)pyrimidin-2-yl)amino)pyridin-3-yl)piperazin-1-yl)ethan-1-one], the Ki was 148 nM on CDK7HMAT1 [1], 427 nM at CDK9/CyclinT1, over 500 nM on CDK1B [3] and 340 nM on CDK4/D1. For the same molecule, the GI50 is 690 nM in the assay on U937 and 2 nM in the assay with MV-4-11. The same molecule had an activity on CDK2E1 [2] of 52%. For the same molecule, the remaining activity at 10 µM at CDK6/D3 was 76%.

In the case of `CC(=O)N1CCN(c2ccc(Nc3nccc(-c4cnc5ccc(-c6cn[nH]c6)cn45)n3)nc2)CC1` [Cmpd 24, 1-(4-(6-((4-(6-(1H-Pyrazol-4-yl)imidazo[1,2-a]pyridin-3-yl)pyrimidin-2-yl)amino)pyridin-3-yl)piperazin-1-yl)ethan-1-one], the Ki on CDK7HMAT1 [1] is 1190 nM; at CDK9/CyclinT1 it was 125 nM. Further, the GI50 in the assay with U937 amounted to 466 nM; in the assay with MV-4-11, 25 nM. Further, the figures for the activity at CDK2E1 [2] and on CDK1B [5] (10 µM) were 24% and 35%, respectively. The remaining activity at 10 µM at CDK4/D1 (compound at 10 μM, read-out: residual enzymatic activity (%) at 10 μM) worked out at 66%; at CDK6/D3, 61%.

In the case of `CC(=O)N1CCN(c2ccc(Nc3nccc(-c4cnc5ccc(-c6ccoc6)cn45)n3)nc2)CC1` [Cmpd 25, 1-(4-(6-((4-(6-(Furan-3-yl)imidazo[1,2-a]pyridin-3-yl)pyrimidin-2-yl)amino)pyridin-3-yl)piperazin-1-yl)ethan-1-one], the results for the Ki on CDK7HMAT1 [1] and on CDK9/CyclinT1 were 186 nM and 71 nM, respectively. In addition, the GI50 with U937 turned out to be 765 nM; in the assay with MV-4-11, 5 nM. For the same molecule, the activity on CDK2E1 [2] was found to be 40%; at CDK1B [5] (1 µM) it was 95%. Besides, the remaining activity at 1 µM is 75% on CDK4/D1 (setting [7]) and 52% on CDK6/D3 (setting [7]).

At CDK2E1 [6], `Fc1ccc(Nc2nccc(-c3cnc4ccccn34)n2)nc1` [Cmpd 51, N-(5-Fluoropyridin-2-yl)-4-(imidazo[1,2-a]pyridin-3-yl)pyrimidin-2-amine] returned a Ki of 116 nM. Besides, the GI50 in the assay on U937 was 350 nM; in the assay with MV-4-11 it was 72 nM.
